{"source": "PubChem BioAssay (NCI)", "experiment_in_all_cases": "growth of human tumour cells (NCI), 48 h", "key": {"PC-3 prostate": {"test_system": "PC-3 prostate"}, "RPMI-8226 leukemia": {"test_system": "RPMI-8226 leukemia"}, "NCI-H226 lung": {"test_system": "NCI-H226 lung"}, "HOP-62 NSCLC": {"test_system": "HOP-62 NSCLC"}, "MALME-3M melanoma": {"test_system": "MALME-3M melanoma"}, "HT29 colon": {"test_system": "HT29 colon"}, "HCT-116 colon": {"test_system": "HCT-116 colon"}, "MDA-MB-231 breast": {"test_system": "MDA-MB-231 breast"}, "M14 melanoma": {"test_system": "M14 melanoma"}, "786-0 renal": {"test_system": "786-0 renal"}, "DMS 114 small cell lung": {"test_system": "DMS 114 small cell lung"}, "SR leukemia": {"test_system": "SR leukemia"}, "DMS 273 small cell lung": {"test_system": "DMS 273 small cell lung"}, "HCT-15 colon": {"test_system": "HCT-15 colon"}, "LXFL 529 NSCLC": {"test_system": "LXFL 529 NSCLC"}, "K-562 leukemia": {"test_system": "K-562 leukemia"}, "HOP-92 NSCLC": {"test_system": "HOP-92 NSCLC"}, "MCF7 breast": {"test_system": "MCF7 breast"}, "MDA-N": {"test_system": "MDA-N"}, "DU-145 prostate": {"test_system": "DU-145 prostate"}, "A498 renal": {"test_system": "A498 renal"}, "M19-MEL melanoma": {"test_system": "M19-MEL melanoma"}, "SK-MEL-28 melanoma": {"test_system": "SK-MEL-28 melanoma"}, "CCRF-CEM leukemia": {"test_system": "CCRF-CEM leukemia"}, "SK-MEL-5 melanoma": {"test_system": "SK-MEL-5 melanoma"}, "SN12C renal": {"test_system": "SN12C renal"}, "A549 NSCLC": {"test_system": "A549 NSCLC"}, "SW-620 colon": {"test_system": "SW-620 colon"}, "NCI/ADR-RES ovarian": {"test_system": "NCI/ADR-RES ovarian"}, "CAKI-1 renal": {"test_system": "CAKI-1 renal"}, "HS 578T breast": {"test_system": "HS 578T breast"}, "SF-268 CNS": {"test_system": "SF-268 CNS"}, "U251 CNS": {"test_system": "U251 CNS"}, "SNB-75 CNS": {"test_system": "SNB-75 CNS"}, "SK-MEL-2 melanoma": {"test_system": "SK-MEL-2 melanoma"}, "SNB-78 CNS": {"test_system": "SNB-78 CNS"}, "SK-OV-3 ovarian": {"test_system": "SK-OV-3 ovarian"}, "LOX IMVI melanoma": {"test_system": "LOX IMVI melanoma"}, "OVCAR-8 ovarian": {"test_system": "OVCAR-8 ovarian"}, "ACHN renal": {"test_system": "ACHN renal"}, "TK-10 renal": {"test_system": "TK-10 renal"}, "HL-60(TB) leukemia": {"test_system": "HL-60(TB) leukemia"}, "UACC-257 melanoma": {"test_system": "UACC-257 melanoma"}, "XF 498 CNS": {"test_system": "XF 498 CNS"}, "SF-295 CNS": {"test_system": "SF-295 CNS"}, "T-47D breast": {"test_system": "T-47D breast"}, "SF-539 CNS": {"test_system": "SF-539 CNS"}, "RXF 393 renal": {"test_system": "RXF 393 renal"}, "HCC-2998 colon": {"test_system": "HCC-2998 colon"}, "OVCAR-4 ovarian": {"test_system": "OVCAR-4 ovarian"}, "IGROV1 ovarian": {"test_system": "IGROV1 ovarian"}, "MDA-MB-435": {"test_system": "MDA-MB-435"}, "NCI-H460 lung": {"test_system": "NCI-H460 lung"}, "UACC-62 melanoma": {"test_system": "UACC-62 melanoma"}, "EKVX NSCLC": {"test_system": "EKVX NSCLC"}, "OVCAR-5 ovarian": {"test_system": "OVCAR-5 ovarian"}, "BT-549 breast": {"test_system": "BT-549 breast"}, "KM12 colon": {"test_system": "KM12 colon"}, "KM20L2 colon": {"test_system": "KM20L2 colon"}, "OVCAR-3 ovarian": {"test_system": "OVCAR-3 ovarian"}, "DLD-1 colon": {"test_system": "DLD-1 colon"}, "UO-31 renal": {"test_system": "UO-31 renal"}, "NCI-H23 lung": {"test_system": "NCI-H23 lung"}, "NCI-H522 lung": {"test_system": "NCI-H522 lung"}, "SNB-19 CNS": {"test_system": "SNB-19 CNS"}, "COLO 205 colon": {"test_system": "COLO 205 colon"}, "MOLT-4 leukemia": {"test_system": "MOLT-4 leukemia"}}, "note": "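Each compound was tested at five concentrations against cells in 96-well plates for 48 hours. At the TGI there is no net growth.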", "data": [{"compound": "CNC(=O)NC(CCCCNC(=O)OCc1ccccc1)C(=O)OCc1ccccc1", "note": "(configuration not stated)", "values": [{"measurement": "TGI", "setting": "PC-3 prostate", "result": "> 100", "unit": "µM"}, {"measurement": "TGI", "setting": "RPMI-8226 leukemia", "result": 67.4, "unit": "µM"}, {"measurement": "TGI", "setting": "NCI-H226 lung", "result": "> 88.6", "unit": "µM"}, {"measurement": "TGI", "setting": "HOP-62 NSCLC", "result": "> 100", "unit": "µM"}, {"measurement": "TGI", "setting": "MALME-3M melanoma", "result": 64.9, "unit": "µM"}, {"measurement": "TGI", "setting": "HT29 colon", "result": "> 100", "unit": "µM"}, {"measurement": "TGI", "setting": "HCT-116 colon", "result": "> 100", "unit": "µM"}, {"measurement": "TGI", "setting": "MDA-MB-231 breast", "result": "> 73.9", "unit": "µM"}, {"measurement": "TGI", "setting": "M14 melanoma", "result": 43, "unit": "µM"}, {"measurement": "TGI", "setting": "786-0 renal", "result": "> 100", "unit": "µM"}, {"measurement": "TGI", "setting": "DMS 114 small cell lung", "result": 85.4, "unit": "µM"}, {"measurement": "TGI", "setting": "SR leukemia", "result": 99.5, "unit": "µM"}, {"measurement": "TGI", "setting": "DMS 273 small cell lung", "result": "> 100", "unit": "µM"}, {"measurement": "TGI", "setting": "HCT-15 colon", "result": "> 100", "unit": "µM"}, {"measurement": "TGI", "setting": "LXFL 529 NSCLC", "result": "> 100", "unit": "µM"}, {"measurement": "TGI", "setting": "K-562 leukemia", "result": 89.4, "unit": "µM"}, {"measurement": "TGI", "setting": "HOP-92 NSCLC", "result": 45.3, "unit": "µM"}, {"measurement": "TGI", "setting": "MCF7 breast", "result": "> 100", "unit": "µM"}, {"measurement": "TGI", "setting": "MDA-N", "result": 44, "unit": "µM"}, {"measurement": "TGI", "setting": "DU-145 prostate", "result": "> 100", "unit": "µM"}, {"measurement": "TGI", "setting": "A498 renal", "result": 71.4, "unit": "µM"}, {"measurement": "TGI", "setting": "M19-MEL melanoma", "result": 40.7, "unit": "µM"}, {"measurement": "TGI", "setting": "SK-MEL-28 melanoma", "result": 41.5, "unit": "µM"}, {"measurement": "TGI", "setting": "CCRF-CEM leukemia", "result": 71.8, "unit": "µM"}, {"measurement": "TGI", "setting": "SK-MEL-5 melanoma", "result": 31.5, "unit": "µM"}, {"measurement": "TGI", "setting": "SN12C renal", "result": "> 84.6", "unit": "µM"}, {"measurement": "TGI", "setting": "A549 NSCLC", "result": "> 100", "unit": "µM"}, {"measurement": "TGI", "setting": "SW-620 colon", "result": "> 100", "unit": "µM"}, {"measurement": "TGI", "setting": "NCI/ADR-RES ovarian", "result": "> 100", "unit": "µM"}, {"measurement": "TGI", "setting": "CAKI-1 renal", "result": "> 80.2", "unit": "µM"}, {"measurement": "TGI", "setting": "HS 578T breast", "result": "> 100", "unit": "µM"}, {"measurement": "TGI", "setting": "SF-268 CNS", "result": "> 100", "unit": "µM"}, {"measurement": "TGI", "setting": "U251 CNS", "result": "> 97.1", "unit": "µM"}, {"measurement": "TGI", "setting": "SNB-75 CNS", "result": 43.9, "unit": "µM"}, {"measurement": "TGI", "setting": "SK-MEL-2 melanoma", "result": 38.4, "unit": "µM"}, {"measurement": "TGI", "setting": "SNB-78 CNS", "result": "> 91.7", "unit": "µM"}, {"measurement": "TGI", "setting": "SK-OV-3 ovarian", "result": "> 100", "unit": "µM"}, {"measurement": "TGI", "setting": "LOX IMVI melanoma", "result": "> 78.2", "unit": "µM"}, {"measurement": "TGI", "setting": "OVCAR-8 ovarian", "result": "> 87.5", "unit": "µM"}, {"measurement": "TGI", "setting": "ACHN renal", "result": "> 100", "unit": "µM"}, {"measurement": "TGI", "setting": "TK-10 renal", "result": 99, "unit": "µM"}, {"measurement": "TGI", "setting": "HL-60(TB) leukemia", "result": 65.6, "unit": "µM"}, {"measurement": "TGI", "setting": "UACC-257 melanoma", "result": 36.8, "unit": "µM"}, {"measurement": "TGI", "setting": "XF 498 CNS", "result": 31.8, "unit": "µM"}, {"measurement": "TGI", "setting": "SF-295 CNS", "result": "> 100", "unit": "µM"}, {"measurement": "TGI", "setting": "T-47D breast", "result": 51.3, "unit": "µM"}, {"measurement": "TGI", "setting": "SF-539 CNS", "result": 49.9, "unit": "µM"}, {"measurement": "TGI", "setting": "RXF 393 renal", "result": 53.6, "unit": "µM"}, {"measurement": "TGI", "setting": "HCC-2998 colon", "result": "> 72.9", "unit": "µM"}, {"measurement": "TGI", "setting": "OVCAR-4 ovarian", "result": "> 100", "unit": "µM"}, {"measurement": "TGI", "setting": "IGROV1 ovarian", "result": "> 100", "unit": "µM"}, {"measurement": "TGI", "setting": "MDA-MB-435", "result": 39.5, "unit": "µM"}, {"measurement": "TGI", "setting": "NCI-H460 lung", "result": "> 100", "unit": "µM"}, {"measurement": "TGI", "setting": "UACC-62 melanoma", "result": 33.1, "unit": "µM"}, {"measurement": "TGI", "setting": "EKVX NSCLC", "result": "> 100", "unit": "µM"}, {"measurement": "TGI", "setting": "OVCAR-5 ovarian", "result": 98.2, "unit": "µM"}, {"measurement": "TGI", "setting": "BT-549 breast", "result": "> 100", "unit": "µM"}, {"measurement": "TGI", "setting": "KM12 colon", "result": "> 100", "unit": "µM"}, {"measurement": "TGI", "setting": "KM20L2 colon", "result": "> 100", "unit": "µM"}, {"measurement": "TGI", "setting": "OVCAR-3 ovarian", "result": 57.9, "unit": "µM"}, {"measurement": "TGI", "setting": "DLD-1 colon", "result": "> 100", "unit": "µM"}, {"measurement": "TGI", "setting": "UO-31 renal", "result": 98.3, "unit": "µM"}, {"measurement": "TGI", "setting": "NCI-H23 lung", "result": "> 100", "unit": "µM"}, {"measurement": "TGI", "setting": "NCI-H522 lung", "result": 21.4, "unit": "µM"}, {"measurement": "TGI", "setting": "SNB-19 CNS", "result": "> 100", "unit": "µM"}, {"measurement": "TGI", "setting": "COLO 205 colon", "result": 34.2, "unit": "µM"}, {"measurement": "TGI", "setting": "MOLT-4 leukemia", "result": 58.7, "unit": "µM"}]}]}
